Measurements as given in ChEMBL document CHEMBL1138432, “Cytotoxic cucurbitacin constituents from Sloanea zuliaensis” (2003).

Key:
Type in all cases: functional
MCF7 = assay: Cytotoxicity against human MCF7 cells
NCI-H460 = assay: Cytotoxicity against human H460 cells
SF-268 = assay: Cytotoxicity against human SF268 cells

| Structure (SMILES) | GI50 (MCF7) [nM] | GI50 (NCI-H460) [nM] | GI50 (SF-268) [nM] |
| --- | --- | --- | --- |
| CC(=O)OC(C)(C)/C=C/C(=O)[C@](C)(O)[C@H]1[C@H](O)C[C@@]2(C)[C@@H]3CC=C4[C@@H](C[C@H](O)[C@@H](O)C4(C)C)[C@]3(C)C(=O)C[C@]12C | 110 | 65 | 87 |
| CC(C)(O)/C=C/C(=O)[C@](C)(O)[C@H]1[C@H](O)C[C@@]2(C)[C@@H]3CC=C4[C@@H](CCC(=O)C4(C)C)[C@]3(C)C(=O)C[C@]12C | 41 | 32 | 210 |
| CC(C)(O)/C=C/C(=O)[C@](C)(O)[C@H]1[C@H](O)C[C@@]2(C)[C@@H]3CC=C4[C@@H](C[C@H](O)C(=O)C4(C)C)[C@]3(C)C(=O)C[C@]12C [CUCURBITACIN D] | 20 | 13 | 21 |
